Results taken from paper PMC9254247, “Dual-sensitive antibacterial peptide nanoparticles prevent dental caries” (Theranostics, 2022).
No end group written: not given here.

Key:
normal gastric organoids = type: cell-based, human; details: 1 day
Text: (§1) Toxicity tests on human organoid s. Organoids have been established in our lab.
(§2) Ethical approval of the study and the written consent/permission forms were obtained from Institutional Review Board (IRB) at Hunan N ormal University before the study commencement. For each patient, written permission form was reviewed and signed by themselves. According to the literature14,15, briefly, the tissue samples obtained from patients were removed excess fat or muscle tissues and cut into small fragments.
(§3) The fragments were washed thoroughly, then digested and centrifuged to obtain cell pellet. The resulting pellet was resuspended in ice-cold 70 % BME for incubating 15 min and then the organoid medium was added. The composition of oral and gastric organoid medium was as follows: […]
(§4) Human gastric organoid medium contains Advanced Dulbecco’s Modified Eagle’s […]
GlutaMAX,1×B27 supplement (Life Technologies), 50 ng/mL human EGF […]
(§5) 50- AGGGTATCTAATCCT-30) and the final amplicon was quantified using a Qubit dsDNA assay kit (Life Technologies, California, United States). […]
(§6) The operational taxonomic units (OTUs) were generated using Vsearch software with a 97% similarity cutoff. The QIIME package and the RDP classifier (confidence threshold was 70%) were performed to select the representative read of each OTU and annotate and BLAST against the Silva database Version 123, respectively. […]

normal oral organoids = type: cell-based, human; details: 1 day
Text: as §1, §2, §3, §5, §6

[1] = test system: normal oral and gastric organoids; type: cell-based, human
Text: as §1, §2, §3, §5, §6

[2] = test system: S. mutans UA159 infection of teeth; assay: In vivo rodent model simulating severe childhood caries; parameters: species or system Sprague-Dawley rat pups; details: for body weights vs control: after 35 days of topical treatment, 100 μM; for H&E staining of gingival, palatal and gastric tissues: caries study, Figure S12
Text: For each patient, written permission form was reviewed and signed. […]
In vivo rodent model simulating severe childhood caries. All the animal studies were approved by the Institutional Animal Care and Use Committee (IACUC) of Hunan Normal University, and the National Institutes of Health guidelines for the performance of animal experiments were followed. 15 days -old female Sprague– Dawley rat pups were purchased with their dams from Slac & Jingda Corporation of laboratory animals, Changsha, China. All animals should be checked for the pathogen […]
infections especially for the S.mutans by plating oral swabs on mitis salivarius agar plus bacitracin. The animals were then infected by mouth with S. mutans UA159 (mid-logarithmic) 4 times (once a day) by pipetting 0.1 mL of a cell suspension containing 2 × 10^8 colony-forming units into their mouths. When the infection was confirmed, all the pups were randomly placed into three treatment groups, and their teeth were treated topically once a day for a total 35 days using the swabs plus modified syringe. The concentration of CHX and pHly -1 NPs was 100 μM and the volume was 300 μ L. The three treatment groups were: (1) control (PBS, pH 4.5); (2) CHX (100 μ M, dissolve in PBS, pH 4.5); (3) pHly -1 NPs (100 μM, dissolve in PBS, pH 4.5). Each group was provided the National Institutes of Health cariogenic diet 2000 and water containing 5% sucrose. After 35 days of treatment, all animals were sacrificed and jaws were collected according the literature . Determination of caries score of the jaws was performed by a calibrated examiner who was blind for the study by using codified samples according to Lar son’s modification of Keyes’ system 11 -13. […]
The fragments were washed thoroughly, then digested and centrifuged to obtain cell pellet. The resulting pellet was resuspended in ice-cold 70 % BME for incubating 15 min and then the organoid medium was added. The composition of oral and gastric organoid medium was as follows:
Human oral organoid medium contains Advanced Dulbecco’s Modified Eagle’s Medium/F12 supplemented with penicillin/streptomycin, 10 mM HEPES, 2 mM GlutaMAX, 1×B27 supplement (Life Technologies), 1.25 mM N -acetyl-l-cysteine (Sigma-Aldrich), 10 mM Nicotinamide (Sigma-Aldrich), 50 ng/mL human EGF (PeproTech), 500 nM A83- 01(Tocris Bioscience), 10 ng/mL human FGF10
(PeproTech), 5 ng/mL human FGF2 (PeproTech), 1 μM Prostaglandin E2 (Tocris Bioscience), 3 μM CHIR 99021 (Sigma -Aldrich), 1μM Foskolin, 100 μg/mL […]
as §4
GlutaMAX,1×B27 supplement (Life Technologies), 50 ng/mL human EGF
(PeproTech), 200 ng/mL human FGF10 (PeproTech), 1.25 mM N-acetyl-l-cysteine (Sigma-Aldrich), 10 nM Gastin-l, 500 nM A83- 01 (Tocris Bioscience), 10 μM […]
Prostaglandin E2 (Tocris Bioscience), 100 ng/mL human recombinant IGF-1 (Bio Legend), 3 μM CHIR 99021 (Sigma-Aldrich), 10 mM Nicotinamide (Sigma-Aldrich).
For the organoid toxicity assay, organoids were digested into single cells. After centrifugation and washing, single cells were plated in 70 % BME and then added to 96-well plates (5 μ L/well). After that, 100 μ L organoid medium was added into the […]

[3] = test system: oral microbiota and gingival, palatal and gastric tissues; type: in vivo, Kuming mice; details: for H&E staining of gingival, palatal and gastric tissues / oral microbiota diversity / ecological balance (PCoA, Chao, Shannon) / abundance of top three phyla (Bacteroidetes, Firmicutes, Proteobacteria): 0.2%, 100 μL, once per day for 7 days; for oral microbiota diversity / ecological balance (PCoA, Chao, Shannon) / abundance of top three phyla (Bacteroidetes, Firmicutes, Proteobacteria): n = 8; for abundance of top three phyla (Bacteroidetes, Firmicutes, Proteobacteria): saliva on 8th day; for tooth staining: data not shown
Text: Toxicity tests on mice. Furthermore, 35- 40 g fe male Kuming mice were also purchased from Slac & Jingda Corporation of laboratory animals, Changsha, China to systematically evaluate the toxicity of pHly -1 NPs to oral microflora and soft tissue in mice. All animals were randomly placed into three treatment groups, and pHly-1 NPs or CHX in aqueous solution was gradually added to mice mouth once a day for seven days. Considering the concentration of CHX used in clinic is usually 0.2 %, we determined that the concentration of the pHly -1 NPs rinsed mouse’s mouth is also 0.2 % and the volume was 100 μ L. At the 8th day, saliva was drawn for oral microbiome analysis, and gingival, palatal and gastric tissues were collected for histopathological […]
Oral flora 16S rRNA sequencing. Total genomic DNA of oral samples was extracted in OE Biotech Company (Shanghai, China) using a QIAamp DNA Stool Mini Kit (Qiagen, Germantown, MD, USA). Bacterial DNA was amplified with primers […]
targeting the V3- V4 regions (50- TACGGRAGGCAGCAG- 30,
50- AGGGTATCTAATCCT-30) and the final amplicon was quantified using a Qubit dsDNA assay kit (Life Technologies, California, United States). Equal amounts of purified amplicons were pooled for subsequent sequencing by the Illumina Nova 6000 platform (Illumina, USA) (Shanghai Oebiotech Co., Ltd., Shanghai, China). The raw data were treated and processed using the QIIME software package (version 1.8.0).
The operational taxonomic units (OTUs) were generated using Vsearch software with a 97% similarity cutoff. The QIIME package and the RDP classifier (confidence threshold was 70%) were performed to select the representative read of each OTU and annotate and BLAST against the Silva database Version 123, respectively.
Furthermore, the microbial diversity in oral samples was estimated by using the alpha diversity that include Chao1 and Shannon index. The bacterial diversity between groups was compared using the Wilcoxon rank sum test.

Compound	gastric organoids death (normal gastric organoids; 31.25 μM)	oral organoid death (normal oral organoids; 15.6 μM)	concentration inducing organoid death or decreased viability [1]	body weights vs control [2]	H&E staining of gingival, palatal and gastric tissues [2]	caries lesions on sulcal and smooth surfaces (Keyes' scoring, Larson's modification) vs control ([2]; topical 100 μM, 300 μL, pH 4.5, once per day, 35 days, n = 8)	H&E staining of gingival, palatal and gastric tissues [3]	oral microbiota diversity / ecological balance (PCoA, Chao, Shannon) [3]	abundance of top three phyla (Bacteroidetes, Firmicutes, Proteobacteria) [3]	tooth staining [3]	effect on gastric organoid viability (normal gastric organoids; 500 μM)	effect on oral organoid viability (normal oral organoids; 500 μM)	effect on both organoids [1]
[H]/N=C(\N/C(=N/[H])NCCCCCCNC(=N)NC(=N)Nc1ccc(Cl)cc1)Nc1ccc(Cl)cc1 [CHX, chlorhexidine]	about 40%	about 60%	~ 20 μM	No significant difference in body weights	no detectable signals for the harmful effect	alleviated severe lesions	epithelial cell shedding and structural damage of gastric tissue	reduced the oral microbiota diversity	significantly increased the abundance of Firmicutes species	occasionally present	–	–	–
KIWFHAMHIIAHFIAHQHLHQHL-NH2 [pHly-1 NPs]	–	–	–	No significant difference in body weights	no detectable signals for the harmful effect	–	no visible signs of harmful effects	did not disrupt the ecological balance of the microbiota	did not affect their abundance	not observed	no obvious effect	no apparent viability decrease	no apparent effect
